Measurements published in patent US3993754A (priority 1974, dated 1976).
Where two headings read alike, the source gives them in different places. *1 amine or outer side, *2 acyl side, *3 side chain or, on linkers, in order; H or OH if unused. Where a SMILES comes first, the peptide text is derived from it. Bridges are numbered along the chain shown (N, C = ends). Roman numbers before positions name the chains, in order. [ ]: non-standard residue; d: D form. Actinocin(9to1) = Cc1c2oc3c(C)ccc(C(=O)[*:1])c3nc-2c(C(=O)[*:2])c(N)c1=O; NMeV = CN[C@H](C(=O)O)C(C)C; Sar = CNCC(=O)O

Legend:
[1] = mice
Description: Female CF No. 1 (Carworth Farms) mice, 3 months of age, weighing between 27 and 29 grams, were used in each instance in these experiments. For toxicity studies, groups of 15 or 20 mice were given actinomycin D at different levels, either in the nonencapsulated or in the liposome-encapsulated forms. Toxicity of actinomycin D was tested by both intravenous and intraperitoneal injection. Experiments were carried out to test the therapeutic efficacy of the encapsulated actinomycin D against Ehrlich ascites (E. A.) tumor cells in vivo. In Experiment I, mice recieved 20 × 10^6 E.A. cells by intraperitoneal injection. After 5 days, separate groups were treated with one of the following: (1) 0.4 ml of 8 mM calcium chloride, (2) nonencapsulated actinomycin D (0.75 mg/kg), or (3) liposome-encapsulated actinomycin D (0.75 mg/kg). In Experiment II, two groups of 10 mice were similarly inoculated. Treatment of one group was begun after 3 days with 0.5 mg/kg of encapsulated actinomycin D, followed by injection on 4 consecutive days with 0.25 mg/kg. All injections were given intraperitoneally, in a volume of 0.4 ml in Experiment I, 0.2 ml in Experiment II.

[2] = system: Ehrlich ascites (E. A.) tumor cells; assay: Therapeutic efficacy against Ehrlich ascites tumor cells in vivo (survival time); design: species or system mice; settings: Experiment I: single i.p. treatment 0.75 mg/kg, 5 days after inoculation of 20 × 10^6 E.A. cells; control 7.4 ± 3.11 days
Description: Referring to FIG. 1, there is illustrated the therapeutic effect of liposome-encapsulated actinomycin D on the survival of mice bearing E.A. tumor following single treatments given at 5 days after inoculation of 20 × 10^6 E.A. cells. A control is represented by line 11 on the graph, liposome-encapsulated actinomycin D at 0.75 mg/kg represented by line 12 and nonencapsulated actinomycin D at 0.75 mg/kg represented by line 13.
Referring to FIG. 2, there is shown graphically the therapeutic effect of liposome-encapsulated actinomycin D on the survival of mice bearing E.A. tumor with multiple daily treatments starting at day 3 after inoculation with 20 × 10^6 E.A. cells. In FIG. 2, the control is represented by line 14, liposome-encapsulated actinomycin D, first dose 0.50 mg/kg followed by four consecutive injections of 0.25 mg/kg, is represented by line 15. As is readily apparent from the graph, the increase in survival time after mutliple injections of encapsulated actinomycin D was even more impressive: 7.3 ± 2.26 days for the control versus 17.6 ± 2.17 days for the encapsulated actinomycin D. All of the control animals died before the first death occurred in the treatment group. In a separate experiment, it was observed that injection of liposomes prepared with KCl instead of actinomycin D had no effect on survival time.

E.A. cells = assay: Light and electron microscopic examination of E.A. tumor cells after treatment; assay type: in vivo, mouse; settings: 1 mg/kg (2 mg/kg in the first case), 1 hour to 5 days after treatment
Description: Electron microscopic studies of tissue cells were also conducted. For the electron microscopic studies, a mouse was inoculated with E.A. cells in the manner described above. Five days after the inoculation, liposomes containing actinomycin D at a concentration of 2 mg/kg were injected intraperitoneally. At intervals of 1, 6, 12 and 24 hours after the liposome injection, 0.2 ml of ascites fluid was aspirated from the mouse abdominal cavity with a syringe. The fluid was centrifuged and the pellet of E.A. cells was fixed and processed for examination in an electron microscope. […] Light and electron microscopic examination of E.A. tumor cells was also carried out 1 hour to 5 days after treatment with liposome-encapsulated and nonencapsulated actinomycin D at a dose of 1 mg/kg. […] There was an increase in lipid droplets, lyosomes and autophagic vacuoles and the ribosomes were clumped into distinct clusters. Fewer dividing cells were seen, at least after 24 hours post-treatment.

For `Cc1c2oc3c(C)ccc(C(=O)N[C@@H]4C(=O)N[C@H](C(C)C)C(=O)N5CCC[C@H]5C(=O)N(C)CC(=O)N(C)[C@@H](C(C)C)C(=O)O[C@@H]4C)c3nc-2c(C(=O)N[C@@H]2C(=O)N[C@H](C(C)C)C(=O)N3CCC[C@H]3C(=O)N(C)CC(=O)N(C)[C@@H](C(C)C)C(=O)O[C@@H]2C)c(N)c1=O` [actinomycin D] (I: T[dV]P[Sar][NMeV] / II: T[dV]P[Sar][NMeV]; ester I:1-I:C, II:1-II:C; linker I:N-II:N via Actinocin(9to1)), which LD50 ([1]; given intravenously) is on record?
The LD50 was 0.43 ± 0.04 mg/kg.

What about the LD50 ([1]; intraperitoneal injection) of the same compound?
Its LD50 is 0.59 ± 0.17 mg/kg.

And the “survival of some of the decedents” value ([1]; intraperitoneal injection)?
Its value is ≤ 14 days.

And the “average survival time of the decedents” value ([1]; intravenous, 0.3 mg/kg)?
The value was 3.5 days.

And the “decedents out of 20 injected” value ([1]; intravenous, 0.3 mg/kg)?
Its value is 8.

And the “time within which most of the deaths occurred” value ([1]; intravenous, doses of 0.5 mg/kg and above)?
The value was ≤ 24 h.

And the “survival time after treatment” value [2]?
The value was “slightly, but not significantly, less than the controls”.

And the “morphological damage of E.A. cells” value (E.A. cells)?
The value was “Significantly fewer E. A. cells were damaged”.
